US20240208992A1, “MACROCYCLES AS CFTR MODULATORS” (Idorsia Pharmaceuticals Ltd, priority 2021, published 2024)
pEC50: −log10 of the molar value.

Target: human F508del-CFTR (Homo sapiens, UniProt P13569, DEL508-508)
Test: F508del-CFTR cell surface expression (corrector activity), DiscoveRx ß-galactosidase complementation chemiluminescence assay in recombinant U2OS cell line;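 further: U2OS cells co-expressing ProLink-tagged F508del-CFTR and a membrane-anchored enzyme acceptor, where more surface CFTR restores β-galactosidase activity measured by chemiluminescence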
Settings: U2OS cell line, 16h compound incubation; for pEC50: EC50, F508del-CFTR cell surface expression, geomean values; for Emax: U2OS, in relation to the Emax of the corrector lumacaftor (=100%), arithmetic mean values

Sequence of human F508del-CFTR (P13569 with tags, fused parts or gaps DEL508-508): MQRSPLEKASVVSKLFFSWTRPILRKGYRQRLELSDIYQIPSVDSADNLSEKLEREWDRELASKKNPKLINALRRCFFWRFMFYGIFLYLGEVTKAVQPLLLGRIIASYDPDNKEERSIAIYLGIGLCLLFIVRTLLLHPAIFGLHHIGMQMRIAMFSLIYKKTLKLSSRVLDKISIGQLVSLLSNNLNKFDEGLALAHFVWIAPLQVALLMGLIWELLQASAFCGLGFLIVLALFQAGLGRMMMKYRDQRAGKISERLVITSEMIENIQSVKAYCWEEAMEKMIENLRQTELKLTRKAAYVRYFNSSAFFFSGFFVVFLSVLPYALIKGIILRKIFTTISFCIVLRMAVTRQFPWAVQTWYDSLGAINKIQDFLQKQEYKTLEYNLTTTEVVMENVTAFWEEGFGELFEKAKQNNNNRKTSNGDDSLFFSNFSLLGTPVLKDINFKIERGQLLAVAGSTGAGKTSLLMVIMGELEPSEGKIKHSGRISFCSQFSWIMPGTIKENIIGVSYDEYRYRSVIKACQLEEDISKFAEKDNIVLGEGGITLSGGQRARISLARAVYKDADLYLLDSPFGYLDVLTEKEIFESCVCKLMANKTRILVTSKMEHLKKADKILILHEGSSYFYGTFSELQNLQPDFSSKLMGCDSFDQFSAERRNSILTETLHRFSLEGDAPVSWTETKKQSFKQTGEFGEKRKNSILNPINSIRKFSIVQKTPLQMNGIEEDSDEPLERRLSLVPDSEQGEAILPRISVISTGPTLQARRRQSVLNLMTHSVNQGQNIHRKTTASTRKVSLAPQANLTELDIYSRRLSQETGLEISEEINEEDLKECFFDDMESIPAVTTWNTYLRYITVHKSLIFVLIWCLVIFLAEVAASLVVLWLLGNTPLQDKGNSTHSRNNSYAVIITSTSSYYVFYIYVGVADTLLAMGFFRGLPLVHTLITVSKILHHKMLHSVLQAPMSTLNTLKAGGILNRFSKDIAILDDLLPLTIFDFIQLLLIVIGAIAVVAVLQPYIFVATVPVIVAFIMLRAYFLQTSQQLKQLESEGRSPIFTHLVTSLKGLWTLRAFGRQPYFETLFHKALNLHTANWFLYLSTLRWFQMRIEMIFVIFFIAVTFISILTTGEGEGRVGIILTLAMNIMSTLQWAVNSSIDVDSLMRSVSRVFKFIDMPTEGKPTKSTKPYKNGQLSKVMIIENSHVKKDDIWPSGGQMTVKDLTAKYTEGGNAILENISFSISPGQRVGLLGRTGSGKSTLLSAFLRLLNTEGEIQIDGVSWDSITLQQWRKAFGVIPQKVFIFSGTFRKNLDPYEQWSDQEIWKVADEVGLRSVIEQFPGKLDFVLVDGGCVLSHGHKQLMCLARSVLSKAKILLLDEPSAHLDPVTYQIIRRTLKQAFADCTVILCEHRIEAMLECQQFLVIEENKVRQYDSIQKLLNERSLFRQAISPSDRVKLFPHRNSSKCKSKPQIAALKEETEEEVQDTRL

Structure (SMILES) | pEC50 | Emax
COc1nccc2c1C(=O)N[C@H](C(=O)NCCc1cc(C(F)F)no1)CC(=O)N(C)[C@@H](CC(C)C)C(=O)N1CCCC[C@@H]1C(=O)N[C@H](Cc1ccccc1)CO2 [Example 191, (7S,11S,17aR,20R)-20-benzyl-N-(2-(3-(difluoromethyl)isoxazol-5-yl)ethyl)-11-isobutyl-4-methoxy-10-methyl-5,9,12,18-tetraoxo-5,6,7,8,9,10,11,12,15,16,17,17a,18,19,20,21-hexadecahydro-14H-dipyrido[2,1-f:3′,4′-p][1]oxa[4,7,10,14]tetraazacycloheptadecine-7-carboxamide] | 6.32 | 295%
COc1cc2c(cc1OC)C(=O)N[C@H](C(=O)NCCc1ccc(C)cc1)CC(=O)N(C)[C@@H](CC(C)C)C(=O)N(C)CC(=O)N[C@H](Cc1ccccc1)CO2 [Example 192, (3R,9S,13S)-3-benzyl-9-isobutyl-17,18-dimethoxy-7,10-dimethyl-N-(4-methylphenethyl)-5,8,11,15-tetraoxo-2,3,4,5,6,7,8,9,10,11,12,13,14,15-tetradecahydrobenzo[p][1]oxa[4,7,10,14]tetraazacycloheptadecine-13-carboxamide] | 6.50 | 107%
COc1ccc(CCNC(=O)[C@@H]2CC(=O)N(C)[C@@H](CC(C)C)C(=O)N(C)CC(=O)N[C@H](Cc3ccccc3)COc3cc(OC)c(OC)cc3C(=O)N2)cc1 [Example 193, (3R,9S,13S)-3-benzyl-9-isobutyl-17,18-dimethoxy-N-(4-methoxyphenethyl)-7,10-dimethyl-5,8,11,15-tetraoxo-2,3,4,5,6,7,8,9,10,11,12,13,14,15-tetradecahydrobenzo[p][1]oxa[4,7,10,14]tetraazacycloheptadecine-13-carboxamide] | 6.28 | 118%
CCOc1cccc(CCNC(=O)[C@@H]2CC(=O)N(C)[C@@H](CC(C)C)C(=O)N(C)CC(=O)N[C@H](Cc3ccccc3)COc3cc(OC)c(OC)cc3C(=O)N2)c1 [Example 194, (3R,9S,13S)-3-benzyl-N-(3-ethoxyphenethyl)-9-isobutyl-17,18-dimethoxy-7,10-dimethyl-5,8,11,15-tetraoxo-2,3,4,5,6,7,8,9,10,11,12,13,14,15-tetradecahydrobenzo[p][1]oxa[4,7,10,14]tetraazacycloheptadecine-13-carboxamide] | 6.21 | 178%
COc1cccc(CCNC(=O)[C@@H]2CC(=O)N(C)[C@@H](CC(C)C)C(=O)N(C)CC(=O)N[C@H](Cc3ccccc3)COc3cc(OC)c(OC)cc3C(=O)N2)c1 [Example 195, (3R,9S,13S)-3-benzyl-9-isobutyl-17,18-dimethoxy-N-(3-methoxyphenethyl)-7,10-dimethyl-5,8,11,15-tetraoxo-2,3,4,5,6,7,8,9,10,11,12,13,14,15-tetradecahydrobenzo[p][1]oxa[4,7,10,14]tetraazacycloheptadecine-13-carboxamide] | 6.05 | 202%
COc1cc2c(cc1OC)C(=O)N[C@H](C(=O)NCCc1ccccc1F)CC(=O)N(C)[C@@H](CC(C)C)C(=O)N(C)CC(=O)N[C@H](Cc1ccccc1)CO2 [Example 196, (3R,9S,13S)-3-benzyl-N-(2-fluorophenethyl)-9-isobutyl-17,18-dimethoxy-7,10-dimethyl-5,8,11,15-tetraoxo-2,3,4,5,6,7,8,9,10,11,12,13,14,15-tetradecahydrobenzo[p][1]oxa[4,7,10,14]tetraazacycloheptadecine-13-carboxamide] | 6.37 | 106%
COc1cc2c(cc1OC)C(=O)N[C@H](C(=O)NCCc1ccc(N(C)C)cc1)CC(=O)N(C)[C@@H](CC(C)C)C(=O)N(C)CC(=O)N[C@H](Cc1ccccc1)CO2 [Example 197, (3R,9S,13S)-3-benzyl-N-(4-(dimethylamino)phenethyl)-9-isobutyl-17,18-dimethoxy-7,10-dimethyl-5,8,11,15-tetraoxo-2,3,4,5,6,7,8,9,10,11,12,13,14,15-tetradecahydrobenzo[p][1]oxa[4,7,10,14]tetraazacycloheptadecine-13-carboxamide] | 6.24 | 132%
COc1cccc2c1C(=O)N[C@H](C(=O)NCCc1ccc3c(c1)OCO3)CC(=O)N(C)[C@@H](CC(C)C)C(=O)N(CCC1CCCCC1)CC(=O)N[C@H](Cc1ccccc1)CO2 [Example 198, (3R,9S,13S)-N-(2-(benzo[d][1,3]dioxol-5-yl)ethyl)-3-benzyl-7-(2-cyclohexylethyl)-9-isobutyl-16-methoxy-10-methyl-5,8,11,15-tetraoxo-2,3,4,5,6,7,8,9,10,11,12,13,14,15-tetradecahydrobenzo[p][1]oxa[4,7,10,14]tetraazacycloheptadecine-13-carboxamide] | 6.71 | 243%
COc1cccc(CCNC(=O)[C@@H]2CC(=O)N(C)[C@@H](CC(C)C)C(=O)N(CCC3CCCCC3)CC(=O)N[C@H](Cc3ccccc3)COc3cccc(OC)c3C(=O)N2)c1 [Example 199, (3R,9S,13S)-3-benzyl-7-(2-cyclohexylethyl)-9-isobutyl-16-methoxy-N-(3-methoxyphenethyl)-10-methyl-5,8,11,15-tetraoxo-2,3,4,5,6,7,8,9,10,11,12,13,14,15-tetradecahydrobenzo[p][1]oxa[4,7,10,14]tetraazacycloheptadecine-13-carboxamide] | 6.64 | 214%
[2H]C([2H])([2H])Oc1cccc(CCNC(=O)[C@@H]2CC(=O)N(C)[C@@H](CC(C)C)C(=O)N(CCC3CCCCC3)CC(=O)N[C@H](Cc3ccccc3)COc3cccc(OC)c3C(=O)N2)c1 [Example 200, (3R,9S,13S)-3-benzyl-7-(2-cyclohexylethyl)-9-isobutyl-16-methoxy-N-(3-(methoxy-d3)phenethyl)-10-methyl-5,8,11,15-tetraoxo-2,3,4,5,6,7,8,9,10,11,12,13,14,15-tetradecahydrobenzo[p][1]oxa[4,7,10,14]tetraazacycloheptadecine-13-carboxamide] | 6.68 | 270%
CCOc1cccc(CCNC(=O)[C@@H]2CC(=O)N(C)[C@@H](CC(C)C)C(=O)N(CCC3CCCCC3)CC(=O)N[C@H](Cc3ccccc3)COc3cccc(OC)c3C(=O)N2)c1 [Example 201, (3R,9S,13S)-3-benzyl-7-(2-cyclohexylethyl)-N-(3-ethoxyphenethyl)-9-isobutyl-16-methoxy-10-methyl-5,8,11,15-tetraoxo-2,3,4,5,6,7,8,9,10,11,12,13,14,15-tetradecahydrobenzo[p][1]oxa[4,7,10,14]tetraazacycloheptadecine-13-carboxamide] | 6.65 | 109%
COc1cccc2c1C(=O)N[C@H](C(=O)NCCc1ccc(C)cc1)CC(=O)N(C)[C@@H](CC(C)C)C(=O)N(CCC1CCCCC1)CC(=O)N[C@H](Cc1ccccc1)CO2 [Example 202, (3R,9S,13S)-3-benzyl-7-(2-cyclohexylethyl)-9-isobutyl-16-methoxy-10-methyl-N-(4-methylphenethyl)-5,8,11,15-tetraoxo-2,3,4,5,6,7,8,9,10,11,12,13,14,15-tetradecahydrobenzo[p][1]oxa[4,7,10,14]tetraazacycloheptadecine-13-carboxamide] | 6.73 | 160%
COc1cccc2c1C(=O)N[C@H](C(=O)NCCc1ccc(N(C)C)cc1)CC(=O)N(C)[C@@H](CC(C)C)C(=O)N(CCC1CCCCC1)CC(=O)N[C@H](Cc1ccccc1)CO2 [Example 203, (3R,9S,13S)-3-benzyl-7-(2-cyclohexylethyl)-N-(4-(dimethylamino)phenethyl)-9-isobutyl-16-methoxy-10-methyl-5,8,11,15-tetraoxo-2,3,4,5,6,7,8,9,10,11,12,13,14,15-tetradecahydrobenzo[p][1]oxa[4,7,10,14]tetraazacycloheptadecine-13-carboxamide] | 6.74 | 134%
COc1cccc2c1C(=O)N[C@H](C(=O)NCCc1ccccc1F)CC(=O)N(C)[C@@H](CC(C)C)C(=O)N(CCC1CCCCC1)CC(=O)N[C@H](Cc1ccccc1)CO2 [Example 204, (3R,9S,13S)-3-benzyl-7-(2-cyclohexylethyl)-N-(2-fluorophenethyl)-9-isobutyl-16-methoxy-10-methyl-5,8,11,15-tetraoxo-2,3,4,5,6,7,8,9,10,11,12,13,14,15-tetradecahydrobenzo[p][1]oxa[4,7,10,14]tetraazacycloheptadecine-13-carboxamide] | 6.70 | 173%
COc1cc(CCNC(=O)[C@@H]2CC(=O)N(C)[C@@H](CC(C)C)C(=O)N(CCC3CCCCC3)CC(=O)N[C@H](Cc3ccccc3)COc3cccc(OC)c3C(=O)N2)cc(OC)c1 [Example 205, (3R,9S,13S)-3-benzyl-7-(2-cyclohexylethyl)-N-(3,5-dimethoxyphenethyl)-9-isobutyl-16-methoxy-10-methyl-5,8,11,15-tetraoxo-2,3,4,5,6,7,8,9,10,11,12,13,14,15-tetradecahydrobenzo[p][1]oxa[4,7,10,14]tetraazacycloheptadecine-13-carboxamide] | 6.76 | 229%
COc1cccc2c1C(=O)N[C@H](C(=O)NCCc1cccs1)CC(=O)N(C)[C@@H](CC(C)C)C(=O)N(CCC1CCCCC1)CC(=O)N[C@H](Cc1ccccc1)CO2 [Example 206, (3R,9S,13S)-3-benzyl-7-(2-cyclohexylethyl)-9-isobutyl-16-methoxy-10-methyl-5,8,11,15-tetraoxo-N-(2-(thiophen-2-yl)ethyl)-2,3,4,5,6,7,8,9,10,11,12,13,14,15-tetradecahydrobenzo[p][1]oxa[4,7,10,14]tetraazacycloheptadecine-13-carboxamide] | 6.57 | 164%
COc1ccc(CCNC(=O)[C@@H]2CC(=O)N(C)[C@@H](CC(C)C)C(=O)N(CCC3CCCCC3)CC(=O)N[C@H](Cc3ccccc3)COc3cccc(OC)c3C(=O)N2)nc1 [Example 207, (3R,9S,13S)-3-benzyl-7-(2-cyclohexylethyl)-9-isobutyl-16-methoxy-N-(2-(5-methoxypyridin-2-yl)ethyl)-10-methyl-5,8,11,15-tetraoxo-2,3,4,5,6,7,8,9,10,11,12,13,14,15-tetradecahydrobenzo[p][1]oxa[4,7,10,14]tetraazacycloheptadecine-13-carboxamide] | 6.50 | 138%
